Counter-ions that a name gives are not always drawn.

The subject of test [1] is Human fibrosarcoma cells (HT-1080 cells). The test is described as follows: In vitro inhibitory action against ferroptosis (Erastin-induced cell death, Cell Counting Kit-8). Format: cell-based. The conditions noted are these: Erastin 3 μmol/L, 24 hours. Background: Tetrazolium dyes change colour on reduction, which living cells bring about.
For test [2], the system named is MOG-induced experimental autoimmune encephalomyelitis mouse model. Put plainly: Activity assessment 3 in MOG-induced experimental autoimmune encephalomyelitis mouse model. The conditions noted are these: 10 mg/kg orally twice daily for 10 days starting 53 days after MOG35-55 inoculation; vs vehicle-dosing group (2.25). The class given is in vivo, C57BL/6J mice. On the procedure:
(§1) A PBS solution prepared to contain a synthetic partial peptide of MOG (MOG35-55; CSBio) at a concentration of 4 mg/mL was mixed with an equal volume of Freund's complete adjuvant, and a total of 0.1 mL (0.05 mL per flank) of the resulting MOG35-55 dosing solution was inoculated intradermally into the bilateral flanks of C57BL/6J mice (male, 10 weeks old, Charles River Laboratories Japan, Inc.). On the day of inoculation of the MOG35-55 dosing solution and on the second day after the inoculation, 200 μL of pertussis toxin (Sigma Co. LLC) prepared at a concentration of 1 μg/mL was further administered intraperitoneally to the mice.
(§2) The compound of Example 11, the compound of Example 32, and the compound of Example 36 were used as test compounds to assess the effect of the test compounds on increase of neurological score in the MOG-induced experimental autoimmune encephalomyelitis mouse model. The study was performed in the same manner as in Example 175, except that the start day for administrating a test compound, the scoring method, and the timing of determining the neurological score were changed from those in Example 175. Each test compound was administered orally at a dose of 30 mg/kg twice daily for a period of 15 days starting 50 days after the inoculation of the MOG35-55 dosing solution. In addition, the score was determined by the following criteria: 0, normal; 0.5, partial drooping tail; 1, full drooping tail or hind-limb weakness; 2, full drooping tail and hind-limb weakness; 3, hind-limb partial paralysis; 4, hind-limb complete paralysis; 5, fore- and hind-limb complete paralysis.
The compound of Example 144, the compound of Example 171, and the compound of Example 172 were used as test compounds to assess the effect of the test compounds on increase of neurological score in the MOG-induced experimental autoimmune encephalomyelitis mouse model. […]

Test [3] can be described thus: In vitro radical scavenging action (DPPH method). Conditions: 30 minutes at room temperature, maximum concentration 100 μmol/L. On the procedure:
Radical scavenging action was evaluated using the DPPH method in the compound of Comparative Example 1, which is a tetrahydroquinoxaline derivative, and in the tetrahydroquinoline derivative (I) or a pharmaceutically acceptable salt thereof. The DPPH method was performed using an antioxidant capacity measurement kit (Dojindo Laboratories).
A test compound was dissolved in DMSO, and the resulting solution was then mixed with an assay buffer and a DPPH solution, which are included in the kit, to a total volume of 200 μL to obtain a final concentration of 10% DMSO, and the reaction was allowed to proceed. Wells added with 100 μmol/L ferrostatin-1, a radical scavenger, were grouped as “control,” and wells added with not test compound were grouped as “background.” The test compound was serially diluted 3-fold starting from a maximum concentration of 100 μmol/L, and the diluted test compound (1.2, 3.7, 11.1, 33.3, or 100 μmol/L) was added and allowed to react at room temperature. Thirty minutes after the reaction, the absorbance at 517 nm was measured, and the average absorbance value was calculated (N=2). The radical scavenging action of the test compound (hereinafter referred to as radical scavenging rate, %) was calculated based on the equation 2 below. The EC50 value of the test compound was calculated from the radical scavenging rate. Radical scavenging rate (%)=[1−{(Average absorbance value at 517 nm measured when a test compound is added)−(Average absorbance value at 517 nm measured in the background)}/{(Average absorbance value at 517 nm measured in the control)−(Average absorbance value at 517 nm measured in the background)}]×100 Equation 2
A note “no detection of radical scavenging action (N.D.),” is given to compounds with a EC50 of >100 μmol/L.
A general note: DPPH is a stable violet radical that fades when it is reduced.

The subject of test [4] is MOG-induced experimental autoimmune encephalomyelitis mouse model. The test is described as follows: Activity assessment 2 in MOG-induced experimental autoimmune encephalomyelitis mouse model. Format: in vivo, C57BL/6J mice. The conditions noted are these: 30 mg/kg orally twice daily for 15 days starting 50 days after MOG35-55 inoculation; vs vehicle-dosing group (1.93). The procedure:
as §1, §2
The vertical axis represents neurological score (mean±standard error, n=7 or 8). On the horizontal axis, “Vehicle” represents the vehicle-dosing group, and “Compound of Example 11” represents the compound of Example 11—dosing group, and “Compound of Example 32” represents the compound of Example 32—dosing group, and “Compound of Example 36” represents the compound of Example 36—dosing group.

Test [5] has the same test system. The test is described as follows: Activity assessment 1 in MOG-induced experimental autoimmune encephalomyelitis mouse model. Format: in vivo, C57BL/6J mice. Conditions: 30 mg/kg orally twice daily for 15 days starting 55 days after MOG35-55 inoculation. The procedure: The effect of the compound of Example 1 on increase of neurological score was assessed in the MOG-induced experimental autoimmune encephalomyelitis mouse model. The MOG-induced experimental autoimmune encephalomyelitis mouse model was produced according to the method of Jianfeng et al. (The Journal of Immunology, 2009, vol. 182, p. 4036-4045) with partial modification. A PBS solution prepared to contain a synthetic partial peptide of MOG (MOG35-55; CSBio) at a concentration of 4 mg/mL was mixed with an equal volume of Freund's complete adjuvant, and a total of 0.1 mL (0.05 mL per flank) of the resulting MOG35-55 dosing solution was inoculated intradermally into the bilateral flanks of C57BL/6J mice (male, 10 weeks old, Charles River Laboratories Japan, Inc.). On the day of inoculation of the MOG35-55 dosing solution and on the second day after the inoculation, 200 μL of pertussis toxin (Sigma Co. LLC) prepared at a concentration of 1 μg/mL was further administered intraperitoneally to the mice. A test compound was administered orally at a dose of 30 mg/kg twice daily for a period of 15 days starting 55 days after the inoculation of the MOG35-55 dosing solution. The test compound was suspended in a 0.5% methylcellulose solution (hereinafter referred to as vehicle), and the resulting suspension was used. […]

[6] abbreviates: evaluation concentration 30 μmol/L.
[7] abbreviates: evaluation concentration 10 μmol/L.

Turning to `NS(=O)(=O)c1ccc(C2CNc3ccccc3C2)cc1` (stereo not drawn) [Example 172, 4-(1,2,3,4-tetrahydroquinolin-3-yl)benzenesulfonamide], in test [1] (setting [6]), the “Ferroptosis inhibition rate (%)” value came to 92.87%. Further, in test [2], the “neurological score reduction rate” value came out at 27.8%.
For `O=C(Cc1ccc2c(c1)CCC(c1ccccc1)N2)N1CC(O)C1` (stereo not drawn) [Example 144, 1-(3-hydroxyazetidin-1-yl)-2-(2-phenyl-1,2,3,4-tetrahydroquinolin-6-yl)ethan-1-one hydrochloride], the “Ferroptosis inhibition rate (%)” value in test [1] (evaluation concentration 30 μmol/L, hydrochloride) worked out at 96.14%. Moreover, the EC50 (usually the concentration giving half of the maximal effect) in test [3] was above 100 µM. The “neurological score reduction rate” value in test [2] was 25.0%.
In the case of `NC(=O)c1ccc(C2CCc3ccccc3N2)cc1` (stereo not drawn) [Example 36, 4-(1,2,3,4-tetrahydroquinolin-2-yl)benzamide], the “Ferroptosis inhibition rate (%)” value in test [1] (setting [6]) is recorded as 98.76%. The compound also returned an EC50 in test [3] above 100 µM. The “neurological score reduction rate” value in test [4] is 45.1%.
With `Cl.c1ccc(C2CCc3ccccc3N2)cc1` (stereo not drawn) [Example 1, 2-phenyl-1,2,3,4-tetrahydroquinoline hydrochloride], the “Ferroptosis inhibition rate (%)” value in test [1] (setting [6]) is listed as 110.5%. In test [3], this compound displayed an EC50 above 100 µM. In addition, in test [5] (next day after last administration, mean, n=7), the neurological score is reported as 1.29. Moreover, in test [5] (vs vehicle-dosing group (2.43)), the “neurological score reduction rate” value was determined as 46.9%.
Regarding `NS(=O)(=O)c1ccc(C2CCc3ccccc3N2)cc1` (stereo not drawn) [Example 32, 4-(1,2,3,4-tetrahydroquinolin-2-yl)benzenesulfonamide], in test [1] (setting [6]), the “Ferroptosis inhibition rate (%)” value worked out at 100.5%. Further, the EC50 in test [3] was above 100 µM. Also, the “neurological score reduction rate” value in test [4] was 55.4%.
As to `c1ccc2c(c1)CCC(c1cn[nH]c1)N2` (stereo not drawn) [Example 11, 2-(1H-pyrazol-4-yl)-1,2,3,4-tetrahydroquinoline], the “Ferroptosis inhibition rate (%)” value in test [1] (evaluation concentration 50 μmol/L) is 106.0%. In addition, in test [4], the “neurological score reduction rate” value came out at 54.4%.
Consider `NS(=O)(=O)c1ccc(C2CNc3ccccc3C2)cc1` (stereo not drawn) [Example 171, 4-(1,2,3,4-tetrahydroquinolin-3-yl)benzenesulfonamide], for which, in test [1] (setting [6]), the “Ferroptosis inhibition rate (%)” value was 90.71%. Besides, the “neurological score reduction rate” value in test [2] is listed as 47.2%.
For `O=C(Cc1ccc2c(c1)CCC(c1ccccc1)N2)N1CCC1` (stereo not drawn) [Example 151, 1-(azetidin-1-yl)-2-(2-phenyl-1,2,3,4-tetrahydroquinolin-6-yl)ethan-1-one], the “Ferroptosis inhibition rate (%)” value in test [1] (setting [6]) was found to be 108.2%. In addition, the EC50 in test [3] is above 100 µM.
In the case of `Cc1ccc2c(c1)NC(c1ccc(C(N)=O)cc1)CC2` (stereo not drawn) [Example 106, 4-(7-methyl-1,2,3,4-tetrahydroquinolin-2-yl)benzamide], the “Ferroptosis inhibition rate (%)” value in test [1] (setting [6]) is reported as 111.7%. The compound also had an EC50 in test [3] above 100 µM.
Consider `NS(=O)(=O)c1ccc(C2CCc3cc(Cl)ccc3N2)cc1` (stereo not drawn) [Example 116, 4-(6-chloro-1,2,3,4-tetrahydro-quinolin-2-yl)benzenesulfonamide], for which the “Ferroptosis inhibition rate (%)” value in test [1] (setting [7]) was found to be 80.69%. The half-maximal effective concentration (EC50) in test [3] is above 100 µM.
As for `NC(=O)c1ccc(C2CCc3c(Cl)cccc3N2)cc1` (stereo not drawn) [Example 138, 4-(5-chloro-1,2,3,4-tetrahydroquinolin-2-yl)benzamide], the “Ferroptosis inhibition rate (%)” value in test [1] (setting [6]) worked out at 65.15%. The compound further showed a half-maximal effective concentration (EC50) in test [3] above 100 µM.
For `NC(=O)c1ccc(C2CCc3cc(Cl)ccc3N2)cc1` (stereo not drawn) [Example 122, 4-(6-chloro-1,2,3,4-tetrahydroquinolin-2-yl)benzamide], the “Ferroptosis inhibition rate (%)” value in test [1] (setting [7]) turned out to be 97.59%. Further, in test [3], the concentration for a half-maximal effect (EC50) was above 100 µM.
For `CS(=O)(=O)Nc1ccc(C2CCc3ccccc3N2)cc1` (stereo not drawn) [Example 136, N-(4-(1,2,3,4-tetrahydroquinolin-2-yl)phenyl)methanesulfonamide], the “Ferroptosis inhibition rate (%)” value in test [1] (setting [6]) is recorded as 75.50%. Also, the EC50 in test [3] is above 100 µM.
Consider `Cc1ccc2c(c1)CCC(c1ccc(S(N)(=O)=O)cc1)N2` (stereo not drawn) [Example 120, 4-(6-methyl-1,2,3,4-tetrahydroquinolin-2-yl)benzenesulfonamide], for which, in test [1] (setting [7]), the “Ferroptosis inhibition rate (%)” value amounted to 87.34%. This compound had an EC50 in test [3] above 100 µM.

The values above are taken from US12570639B2, “Tetrahydroquinoline derivative and medicinal use thereof” (Toray Industries, Inc., priority 2020, dated 2026).
